# Assay results from patent US7371721B2, “Use of GLP-2 and related compounds for the treatment, prevention, diagnosis, and prognosis of bone-related disorders and calcium homeostasis related syndromes” (priority 2000, dated 2008).
# No end group written: not given here.
# Tests used:
# S-CTX (bone resorption) = assay: Serum S-CTX (Serum CrossLaps ELISA) as marker of bone resorption in human subjects; assay type: in vivo
# Protocol: (§1) In these Examples, hematology and serum chemistry including glucose were measured using an auto analyzer (Vitros). Serum […] was measured by IRMA (Coat-A-Count®, DPC, Los Angeles, Calif.). Serum C-telopeptide fragments of collagen type I degradation (S-CTX) were measured by ELISA, Serum CrossLaps™ assay (Osteometer BioTech A/S—Denmark). Serum osteocalcin was determined by ELISA, an assay which determines the N-terminal mid segment of the molecule. Serum insulin and c-peptide were both assessed by RIA (Coat-A-Count® for insulin and Double Antibody C-peptide for c-peptide both DPC, Los Angeles, Calif.). Total GIP was measured using the C-terminally directed antiserum R65, which reacts with the intact GIP (1-42) and the N-terminally truncated metabolite, GIP (3-42) (Krarup T, Holst J J 1984 The heterogeneity of gastric inhibitory polypeptide in porcine and human gastrointestinal mucosa evaluated with five different antisera. Regul Pept 9:35-46. ). GLP-2 was measured with a N-terminal specific antiserum code no. 92160, measuring only GLP-2 with an intact N-terminus. GLP-1 in plasma samples was measured using a RIA assay specific for the C-terminus of the GLP-1 molecule, using standards of synthetic GLP-1 (7-36) amide and antiserum no. […] GLP-1 is measured in Example 1 as a marker for the effect of the tested materials on GLP-2 levels. […]
# clinical = settings: both sexes, human, in vivo, sc
# Protocol: as §1
# [1] = in vivo; cited from earlier work
# [2] = tested on: ovariectomized induced bone loss; assay: Ovariectomized induced bone loss in aged rats, 6 week study; assay type: in vivo, female Sprague Dawley rats; settings: 6 weeks, in comparison to the untreated controls
# Protocol: The following is a protocol suitable to test whether GLP-2A at 250 μg/kg s.c. twice daily can inhibit ovariectomized induced bone loss in aged rats.
# • Test articles: GLP-2 analogue (Gly2)GLP-2: […]OH. • Vehicle: 0.5% gelatin/PBS (degassed) Gelatin A: Cat. No. 325910, batch no. 273622 (Unikem, Copenhagen, Denmark). PBS: Dubecco's Phosphate buffered saline (BioWhitaker cat.no.BE17-512F) • Positive control: 17β-estradiol pellet 0.5 mg/60 days release implanted subcutaneous (SE-121 Innovative Research of America) A dose of 250 μg/kg is administered by subcutaneous injections twice daily (10-12 hours apart). The injection site will vary according to the injection scheme. The dose is calculated as follow: the weight ofthe rat in kg=the dose in ml; e.g. 0.301kg=0.30 ml Experimental System: The study is performed in 50 female Sprague Dawley rats in 4 groups each of 12 or 13 rats. Surgery: • The rats are anaesthetized with Hypnorm-Domicum (1 part Hypnorm+1 part Dormicum+2 part sterile dI water. The rats are given 0.15 ml/100 g body weight). Ovariectomy (OVX) or sham operations are performed via a midline incision in the back of the rats. […] The wet weight and length of the small intestine and the colon will be recorded. […] Bones are assessed by PQCT, trabecular strength and histomorphologic analysis.
# [3] = tested on: fractures in postmenopausal osteoporosis; settings: cited from earlier work
# GLP-1 = assay: Plasma GLP-1 level (RIA), in Examples 1 and 2 as marker for GLP-2; assay type: in vivo, human; settings: after 2 hours, compared to the baseline of 100% at T0; oral 75 g fructose
# Protocol: as §1
# GIP = assay: Total GIP level (antiserum R65); assay type: in vivo, human; settings: oral 75 g fructose
# Protocol: as §1
compound,measurement,setting,value
CC[C@H](C)[C@H](NC(=O)[C@H](Cc1ccccc1)NC(=O)[C@H](CC(=O)O)NC(=O)[C@H](CCCNC(=N)N)NC(=O)[C@H](C)NC(=O)[C@H](C)NC(=O)[C@H](CC(C)C)NC(=O)[C@H](CC(N)=O)NC(=O)[C@H](CC(=O)O)NC(=O)[C@H](CC(C)C)NC(=O)[C@@H](NC(=O)[C@@H](NC(=O)[C@H](CC(N)=O)NC(=O)[C@H](CCSC)NC(=O)[C@H](CCC(=O)O)NC(=O)[C@H](CC(=O)O)NC(=O)[C@H](CO)NC(=O)[C@H](Cc1ccccc1)NC(=O)[C@H](CO)NC(=O)CNC(=O)[C@H](CC(=O)O)NC(=O)[C@H](C)NC(=O)[C@@H](N)Cc1c[nH]cn1)[C@@H](C)O)[C@@H](C)CC)C(=O)N[C@@H](CC(N)=O)C(=O)N[C@@H](Cc1c[nH]c2ccccc12)C(=O)N[C@@H](CC(C)C)C(=O)N[C@H](C(=O)N[C@@H](CCC(N)=O)C(=O)N[C@H](C(=O)N[C@@H](CCCCN)C(=O)N[C@H](C(=O)N[C@H](C(=O)N[C@@H](CC(=O)O)C(=O)O)[C@@H](C)O)[C@@H](C)CC)[C@@H](C)O)[C@@H](C)CC [GLP-2],reduction in S-CTX,"S-CTX (bone resorption); after 3 hours, subcutaneous bolus injection of 400 μg, healthy women and men",35%
same,Tmax,clinical,1 h
PTH: parathyroid hormone treatment (teriparatide and related compounds) discussed in the cited studies,"hypercalcemia and related symptoms, share of treated individuals",[1],about 11%
His-Gly-Asp-Gly-Ser-Phe-Ser-Asp-Glu-Met-Asn-Thr-Ile-Leu-Asp-Asn-Leu-Ala-Ala-Arg-Asp-Phe-Ile-Asn-Trp-Leu-Ile-Gln-Thr-Lys-Ile-Thr-Asp-OH (HGDGSFSDEMNTILDNLAARDFINWLIQTKITD-OH) [(Gly2)GLP-2],protection against bone density loss following the OVX procedure,[2],protected against bone density loss
CC[C@H](C)[C@H](NC(=O)[C@H](CCC(=O)O)NC(=O)[C@H](CO)NC(=O)[C@@H](NC(=O)[C@@H](N)CO)C(C)C)C(=O)N[C@@H](CCC(N)=O)C(=O)N[C@@H](CC(C)C)C(=O)N[C@@H](CCSC)C(=O)N[C@@H](Cc1cnc[nH]1)C(=O)N[C@@H](CC(N)=O)C(=O)N[C@@H](CC(C)C)C(=O)NCC(=O)N[C@@H](CCCCN)C(=O)N[C@@H](Cc1cnc[nH]1)C(=O)N[C@@H](CC(C)C)C(=O)N[C@@H](CC(N)=O)C(=O)N[C@@H](CO)C(=O)N[C@@H](CCSC)C(=O)N[C@@H](CCC(=O)O)C(=O)N[C@@H](CCCN=C(N)N)C(=O)N[C@H](C(=O)N[C@@H](CCC(=O)O)C(=O)N[C@@H](Cc1c[nH]c2ccccc12)C(=O)N[C@@H](CC(C)C)C(=O)N[C@@H](CCCN=C(N)N)C(=O)N[C@@H](CCCCN)C(=O)N[C@@H](CCCCN)C(=O)N[C@@H](CC(C)C)C(=O)N[C@@H](CCC(N)=O)C(=O)N[C@@H](CC(=O)O)C(=O)N[C@H](C(=O)N[C@@H](Cc1cnc[nH]1)C(=O)N[C@@H](CC(N)=O)C(=O)N[C@@H](Cc1ccccc1)C(=O)O)C(C)C)C(C)C [teriparatide],effect on new non-vertebral fractures,[3]; by the end of the 21-month treatment period,−35%
same,decrease in occurrence of new vertebral fractures,"[3]; subcutaneous daily dose 20 μg, Caucasian women (70 years of age)",65%
same,reduction of moderate-to-severe fractures,[3]; subcutaneous daily dose 20 μg,90%
same,reduction of multiple vertebral fractures,[3]; subcutaneous daily dose 20 μg,77%
"O=C(CO)[C@@H](O)[C@H](O)[C@H](O)CO [Oral fructose, fructose]",level of GLP-2 (measured as GLP-1),GLP-1,220%
same,reduction in S-CTX,"S-CTX (bone resorption); after 2 hours, oral 75 g fructose in 300 ml water, fasted healthy women and men",36%
same,level of GIP,GIP,almost maintained at baseline
C[C@]12CC[C@@H]3c4ccc(O)cc4CC[C@H]3[C@@H]1CC[C@@H]2O [17β-estradiol],protection against bone density loss following the OVX procedure,[2],protected against bone density loss
